From patent publication US6358293B1, “Methods for rendering high concentrations of manganese safe for plant growth and formulations for same” (The Hampshire Chemical Corporation, priority 1999, dated 2002)

Assays:
[1] = system: Geranium; experiment: Growth promotion versus conventionally cultured and single-additive controls; format: in vivo
[2] = system: Coleus; experiment: as above; format: in vivo
[3] = system: New Guinea Impatiens; experiment: as above; format: in vivo
[4] = system: Cabbage; experiment: Effective root application doses; format: in vivo; settings: 10 ml per plant
Experimental: (§1) The following are exemplary ranges of effective root application doses based on 10 ml per plant.

[5] = system: Coleus; experiment: Effective root application doses; format: in vivo; settings: 10 ml per plant
Experimental: as §1

[6] = system: Geranium; experiment: Effective root application doses; format: in vivo; settings: 10 ml per plant
Experimental: as §1

[7] = system: Corn; experiment: Effective foliar application doses; format: in vivo; settings: 1 to 4 ml per plant
Experimental: (§2) The following are exemplary ranges of effective foliar application doses based on 1 to 4 ml per plant.

[8] = system: New Guinea Impatiens; experiment: Effective foliar application doses; format: in vivo; settings: 1 to 4 ml per plant
Experimental: as §2

[9] = system: plants; settings: conventional conditions of plant culture, especially under acidic conditions; cited from earlier work

| SMILES | effect of additive on plant growth [1] | effect of additive on plant growth [2] | effect of additive on plant growth [3] | effective root application dose, MeG ([4]; MeG applied with Mn) | effective root application dose, MeG ([5]; MeG applied with Mn) | effective root application dose, MeG ([6]; MeG applied with Mn) | effective foliar application dose, MeG ([7]; MeG applied with Mn) | effective foliar application dose, MeG ([8]; MeG applied with Mn) | effective root application dose, Mn ([4]; Mn applied with MeG) | effective root application dose, Mn ([5]; Mn applied with MeG) | effective root application dose, Mn ([6]; Mn applied with MeG) | effective foliar application dose, Mn ([7]; Mn applied with MeG) | effective foliar application dose, Mn ([8]; Mn applied with MeG) | concentration at which manganese is phytotoxic to plants [9] |
| --- | --- | --- | --- | --- | --- | --- | --- | --- | --- | --- | --- | --- | --- | --- |
| CO[C@H]1OC(CO)[C@H](O)[C@@H](O)[C@@H]1O (some centres unmarked) [MeG, methyl glucoside] | retarded growth | retarded growth | retarded growth | 10 to 30 mM | 5 to 50 mM | 10 to 100 mM | 5 to 25 mM | 200 to 500 mM | – | – | – | – | – | – |
| [Mn+2] [Mn, manganese] | phytotoxic | phytotoxic | phytotoxic | – | – | – | – | – | 2 to 15 ppm | 2 to 7 ppm | 2 to 15 ppm | 10 to 25 ppm | 10 to 25 ppm | greater than 500 ppb |
